The text below walks through data of PubChem BioAssay AID588757 (Broad Institute, 2011).

The assay concerns the target Aurora kinase B (Homo sapiens) (UniProt Q96GD4). As to the kind of experiment: AURKB enzyme activity inhibitors – biochemical, scintillation, dry powder, counter-screen for STK33 inhibitor project, dose response (AID 588757). The note with it: ATP at Km, gamma-32P-ATP, 40 min room temperature, P30 filtermat scintillation counting; for activity change, negative = inhibition: at 3 µM (top of the series). Background: A counterscreen serves to expose hits that act by an unwanted route or on another target.

A word on the AC50: it is the concentration at which the activity in the assay is half-maximal.

The source made the active and inactive calls.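 The calls were made as follows: active = compounds whose fitted half-maximal concentration is at most ten times their top valid tested dose; inconclusive = flat fit showing moderate inhibition, or poor fit quality; inactive = the rest.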 Where only a bound is given, the exact number is not on record here.

Aurora kinase B (Homo sapiens), sequence (Q96GD4 whole entry, looked up): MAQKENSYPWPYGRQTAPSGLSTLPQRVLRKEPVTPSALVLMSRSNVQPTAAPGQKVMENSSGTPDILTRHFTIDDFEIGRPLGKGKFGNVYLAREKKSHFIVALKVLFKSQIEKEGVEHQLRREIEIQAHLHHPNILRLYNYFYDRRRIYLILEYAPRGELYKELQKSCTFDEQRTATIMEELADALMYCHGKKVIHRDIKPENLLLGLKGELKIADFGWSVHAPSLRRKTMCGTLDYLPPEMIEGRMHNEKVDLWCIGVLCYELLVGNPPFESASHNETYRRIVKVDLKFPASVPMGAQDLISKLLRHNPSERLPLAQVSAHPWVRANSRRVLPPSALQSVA

With `COC(=O)c1ccc(COc2ccccc2/C=C/C(=O)c2ccc(OCC(=O)O)cc2)cc1`, the “activity change, negative = inhibition” value is “inactive”. On to `CC(=O)N(C)c1ccc(N=Cc2c(O)ccc3ccccc23)cc1`, for which the “activity change, negative = inhibition” value is “inactive”. Consider `COc1cc(/C=N/n2c(-c3ccccc3)n[nH]c2=S)ccc1O`, for which the “activity change, negative = inhibition” value was “inactive”. The same measure, in the same setting: the value for `COc1cc(C(=O)NC2CCN(C)CC2)ccc1Nc1ncc2c(n1)N(C1CCC(O)CC1)CCC(=O)N2C` (centres undefined) was “inactive”. As to `Oc1ccc(Nc2nc(-c3ccccc3O)nc3ccccc23)cc1`, the AC50 was 142 nM.

Regarding `Cc1ncc(/C=C2\C(=O)Nc3ccccc32)[nH]1`, the AC50 was 346 nM. Regarding `COc1cc(/C=C2\SC(N)=NC2=O)ccc1O`, the “activity change, negative = inhibition” value was “inactive”.

`CC(C)n1cnc2c(Nc3cccc(Cl)c3)nc(NCCO)nc21`: the AC50 was 1470 nM. On the same count and under the same terms, the value for `O=C(Nc1ccccc1-c1ccccc1)c1ccc(Br)o1` was 1660 nM.

As for `O=C(Nc1ccccc1-c1nc2ccccc2[nH]c1=O)c1cccs1`, the “activity change, negative = inhibition” value was “inactive”.

As for `Nc1nc(-c2cc(O)ccc2[N+](=O)[O-])cc(-c2ccccc2)c1[N+](=O)[O-]`, the AC50 is 12.6 nM.

On to `O=S(=O)(c1cccc2cnccc12)N1CCCNCC1`, for which the “activity change, negative = inhibition” value was “inactive”. In the case of `CCCn1c(NC(=O)c2cccc(S(=O)(=O)N3CCCC3)c2)nc2ccccc21`, the AC50 was 170 nM. Same read-out and setting: the value for `CCOc1ccccc1C(=O)Nc1cc(Cl)ccc1O` was > 3000 nM (inactive).
